Measured values as given in patent US11001570B2, “6-amino-quinolinone compounds and derivatives as BCL6 inhibitors” (Boehringer Ingelheim International GmbH, priority 2016, dated 2021).

Molecular target: T1, BCL6::BCOR (Homo sapiens, UniProt P41182, C67R/C84N/C8Q)
T1 construct: BCL6 (amino acids 5 to 129, with the following changes to the natural protein); made in house; host or cells: E. coli
Assay: BCL6::BCOR ULight TR-FRET assay
Type: binding
Procedure, shortened: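 Biotin-Avi BCL6 (aa 5–129, C8Q/C67R/C84N; E. coli), 1 nM, preincubated 30 min RT with compound (11-point fivefold series, top 100 μM) in HEPES pH 7.3 buffer; then 100 nM ULight-BCOR peptide plus 0.75 nM streptavidin-Eu added, 240 min RT. TR-FRET read, normalized to DMSO controls with/without BCL6.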

Row | IC50 | Structure (SMILES)
1 | 6 nM | CNC(=O)COc1cc2cc(Nc3nc(N4CCC[C@@H](C(=O)N(C)C)C4)ncc3Cl)ccc2n(C)c1=O [Compound I-168, (3R)-1-[5-chloro-4-({1-methyl-3-[(methylcarbamoyl)methoxy]-2-oxo-1,2-dihydroquinolin-6-yl}amino)pyrimidin-2-yl]-N,N-dimethylpiperidine-3-carboxamide]
2 | 6 nM | CNC(=O)COc1cc2cc(Nc3nc(N4CCC[C@@H](C(=O)N5CCN(C)CC5)C4)ncc3Cl)ccc2n(C)c1=O [Compound I-169]
3 | 8 nM | CNC(=O)COc1cc2cc(Nc3nc(N4CCC[C@@H](C(=O)N(C)C5CCN(C)CC5)C4)ncc3Cl)ccc2n(C)c1=O [Compound I-170]
4 | 39 nM | CN(C)C(=O)COc1cc2cc(Nc3nc(N4CCC(C(=O)N(C)C)CC4)ncc3Cl)ccc2n(C)c1=O [Compound I-171]
5 | 187 nM | C[C@@H]1C[C@H](C)CN(c2ncc(Cl)c(Nc3ccc4c(c3)cc(OCP(C)(C)=O)c(=O)n4C)n2)C1 [Compound I-172, 6-({5-chloro-2-[cis-3,5-dimethylpiperidin-1-yl]pyrimidin-4-yl}amino)-3-[(dimethylphosphoryl)-methoxy]-1-methyl-1,2-dihydroquinolin-2-one]
6 | 10 nM | C#CCNC(=O)COc1cc2cc(Nc3nc(N4CCC(C(=O)N(C)C)CC4)ncc3Cl)ccc2n(C)c1=O [Compound I-175]
7 | 106 nM | C[C@@H]1C[C@H](C)CN(c2ccc(Cl)c(Nc3ccc4c(c3)cc(OCC(=O)O)c(=O)n4C)n2)C1 [Compound I-176, 2-{[6-({3-chloro-6-[cis-3,5-dimethylpiperidin-1-yl]pyridin-2-yl}amino)-1-methyl-2-oxo-1,2-dihydroquinolin-3-yl]oxy}acetic acid]
8 | 87 nM | CNC(=O)COc1cc2cc(Nc3nc(N4C[C@H](C)C[C@H](C)C4)ccc3Cl)ccc2n(C)c1=O [Compound I-177, 2-{[6-({3-chloro-6-[cis-3,5-dimethylpiperidin-1-yl]pyridin-2-yl}amino)-1-methyl-2-oxo-1,2-dihydroquinolin-3-yl]oxy}-N-methylacetamide]
9 | 22 nM | CNC(=O)COc1cc2cc(Nc3cc(N4C[C@H](C)C[C@H](C)C4)ncc3Cl)ccc2n(C)c1=O [Compound I-178, 2-{[6-({5-chloro-2-[cis-3,5-dimethylpiperidin-1-yl]pyridin-4-yl}amino)-1-methyl-2-oxo-1,2-dihydroquinolin-3-yl]oxy}-N-methylacetamide]
